In US9073965B2, “Adiponectin receptor agonists and methods of use” (TEMPLE UNIVERSITY—OF THE COMMONWEALTH SYSTEM OF HIGHER …, priority 2011, dated 2015):
Non-standard residues stand in square brackets, D forms with d. Residues, ends and D or L forms follow the SMILES beside them. Nva = CCC[C@H](N)C(=O)O; βAla = NCCC(=O)O

Key:
[1] = tested on: MCF-7 breast cancer cells
Experimental: The MCF-7 breast cancer cell line was obtained from ATCC (Manassas, Va.) and routinely grown in DMEM:F12 plus 5% calf serum (Cellgro Mediatech, Manassas, Va.) at 37° C., 5% CO2. For screening experiments, MCF-7 cells were plated in 24-well plates at the concentration of 30,000 cells/well. After 12 h of culture in the growth medium, the cells were synchronized in serum-free medium (SFM) (DMEM:F12 supplemented with 0.42 g/mL bovine serum albumin, 1 mM FeSO4 and 2 mM L-glutamine) for 24 h and then shifted back to the full growth medium containing either gAd (Phoenix Secretomics, Burlingame, Calif.) at 50 ng/mL, individual peptides, or no test compounds for 24 h. At conclusion of proliferation assays, the cells were counted under the microscope with trypan-blue exclusion. Each experiment was performed in triplicate and repeated at least three times.

LN18 glioblastoma cells = assay: Cell growth experiments, cell counting; assay type: cell-based
Experimental: (§1) Biological activity of the peptides was first assessed using MCF-7 breast cancer cells that express AdipoR1. Arditi J D, Venihaki M, Karalis K P, Chrousos G P Horm Metab Res 2007, 39(1):9-13. The MCF-7 breast cancer cell line was obtained from ATCC (Manassas, Va.) and routinely grown in DMEM:F12 plus 5% calf serum (Cellgro Mediatech, Manassas, Va.) at 37° C., 5% CO2. For screening experiments, MCF-7 cells were plated in 24-well plates at the concentration of 30,000 cells/well. After 12 h of culture in the growth medium, the cells were synchronized in serum-free medium (SFM) (DMEM:F12 supplemented with […] bovine serum albumin, 1 mM FeSO4 and 2 mM L-glutamine) for 24 h and then shifted back to the full growth medium containing either gAd (Phoenix Secretomics, Burlingame, Calif.) at 50 ng/mL, individual peptides, or no test compounds for 24 h. At conclusion of proliferation assays, the cells were counted under the microscope with trypan-blue exclusion. Each experiment was performed in triplicate and repeated at least three times. ADP 25-β-AlaNH2, ADP 91-β-AlaNH2, ADP 157-β-AlaNH2, ADP 223-β-AlaNH2, ADP 289-β-AlaNH2 and ADP 355-β-AlaNH2 were solubilized at 65° C. for 30 min and were further purified by RP-HPLC and screened together with the individually synthesized adiponectin peptides at the exact concentration of 50 ng/mL.
(§2) The effects of the selected peptide ADP 355-NH2 on cell proliferation were tested in breast cancer cell lines (MCF-7, MDA-MB-231) and in glioblastoma cells (LN18), all obtained from ATCC and routinely cultured as described previously. Otvos L, Jr., et al. European J Cancer 2011, 47(10):1578-1584. Riolfi M, et al. Brain Pathol 2010, 20(2):481-489. Bartucci M, et al. Cancer Res 2001, 61(18):6747-6754. The peptide was tested at 10 pM-100 μM concentrations under conditions described above under peptide screening.

[2] = tested on: MDA-MB-231 breast cancer cells; assay: Cell growth experiments, cell counting; assay type: cell-based; conditions: MDA-MB-231 cells
Experimental: as §1, §2

AMPK = assay: Signaling analysis by Western blot: AMPK phosphorylation; assay type: cell-based
Experimental: (§3) The analysis was done using MCF-7 and MDA-MB-231 breast cancer cells and in LN18 glioblastoma cells. The cells at 70-80% confluence were shifted to SFM for 24 h, then SFM was removed, the cultures were washed 2× with PBS, placed in normal growth medium for 1 h, and then treated with ADP 355-NH2 at 100 nM (MCF-7 cells) or 10 μM (MDA-MB-231 and LN 18 cells) concentration for 0-60 min, while gAd at 50 ng/mL was applied for 60 min only. Untreated cells were used as negative control. After the treatment, cells were lysed as previously described and 100 μg of proteins were analyzed by Western blot for the expression of phosphorylated (p) and total forms of several signaling molecules. Bartella V, et al. Cancer Res 2008, 68(12):4919-4927. Garofalo C, et al. Clin Cancer Res 2004, 10(10):6466-6475. The following primary antibodies (Abs) from Cell Signaling (Danvers, Mass.) were used: 1) pAMPK alpha (T172) D79.5E rabbit mAb 1: 750; 2) total AMPK alpha antibody rabbit mAb 1:1000 in; 3) p44/42 MAPK (T202/Y204) rabbit mAb 1:1000; 4) total 44/42 MAP kinase antibody rabbit mAb 1:1000; 5) pStat3 (Y705) D3A7 rabbit mAb 1: 500; 6) total Stat3 79D7 rabbit mAb 1:2000; 7) pAkt (Ser 473) rabbit mAb 1:1000; 8) total Akt rabbit mAb 1:1000; 9) AdipoR1 rabbit purified anti-serum 1:500 (Phoenix Secretomics). Protein loading was verified by evaluating the expression of either a constitutive enzyme glyceraldehyde-3-phosphate dehydrogenase (GAPDH) using 6C51 mAbs 1:1000 (Santa Cruz Biotechnology, CA, USA) or alpha-actin using the actin I-19 goat polyclonal Ab (Santa Cruz) 1: 200. The following secondary Abs (Santa Cruz) were used 1) donkey anti-goat IgG-HRP; 2) goat anti-mouse IgG-HRP; 3) goat anti-rabbit IgG-HRP, all applied at 1:1000 dilution.

ERK1/2 = assay: Signaling analysis by Western blot: ERK1/2 phosphorylation; assay type: cell-based
Experimental: as §3, with “Protein loading was verified by evaluating the expression of either a constitutive enzyme glyceraldehyde-3-phosphate dehydrogenase (GAPDH) using 6C51 mAbs 1:1000 (Santa Cruz Biotechnology, CA, USA) or alpha-actin using the actin I-19 goat polyclonal Ab (Santa Cruz) 1: 200. The following secondary Abs (Santa Cruz) were used 1) donkey anti-goat IgG-HRP; 2) goat anti-mouse IgG-HRP; 3) goat anti-rabbit IgG-HRP, all applied at 1:1000 dilution.” left out

Akt = assay: Signaling analysis by Western blot: Akt; assay type: cell-based
Experimental: as §3

STAT3 = assay: Signaling analysis by Western blot: STAT3 phosphorylation; assay type: cell-based; conditions: for STAT3 phosphorylation: 10 μM
Experimental: as §3

[3] = Peptide stability in mouse serum; assay type: in vitro ADME; conditions: 25% aqueous mouse serum, calculated from degradation rate in 25% aqueous serum, 37° C., data not shown
Experimental: (§4) Sixty μg of ADP 355-NH2 were dissolved in 100 μL water, and 10 μL aliquots were mixed with 100 μL of freshly drawn mouse blood. After 30 min of incubation at 37° C. the cells were centrifuged at 10,000×g. Fifty μL serum was mixed with 50 μL phosphate buffered saline pH 6.8 (PBS), and the serum proteins were precipitated by addition of 45 μL aqueous 15% trichloroacetic acid (TCA) for 10 min at 4° C. After centrifugation at 12,000×g the supernatant was neutralized with 0.1 M aqueous sodium hydroxide and 0.5 μL of this solution was mixed with 0.5 μL α-cyano-4-hydroxycinnamic acid (4 mg/mL in 60% aqueous acetonitrile containing 0.1% TFA) as matrix on a sample plate. Analysis was performed on a MALDI time-of-flight tandem mass spectrometer (MALDITOF/TOF-MS, 4700 proteomic analyzer, Applied Biosystems, Weiterstadt, Germany). Additionally, the neutralized supernatant was loaded on a Jupiter C18 RP-HPLC column (4.6 mm internal diameter, 150 mm length, 5 μm particle size, 30 nm pore size; Phenomenex) that had previously been calibrated with known amounts of peptide ADP 355-NH2 dissolved in PBS. Absorbance was measured at 214 nm. Peptide ADP 355-NH2 was incubated at 37° C. with 25% aqueous mouse serum at a final concentration of 150 μg/mL. After 0, 15, 30, 60, 120, and 240 min 95 μL aliquots were mixed with 25 μL 15% aqueous TCA and were incubated for 10 min at 4° C. […]

[4] = Peptide stability in whole mouse blood; assay type: in vitro ADME; conditions: after 30 min at 37° C., mass spectroscopy
Experimental: as §4

female CBA/J mice = assay: In vivo toxicity, bolus ip; conditions: for Kidney weight / Kidney weight relative to total weight (%) / Liver weight / Liver weight relative to total weight (%) / Spleen weight: day 5
Text: On day 5 the mice were killed by CO2 inhalation and the potential peptide elimination organs, the livers, spleens and kidneys were removed and weighed.

[5] = LN 18 cells, compared with 1 μM
[6] = MDA-MB-231 cells, 10 μM, 0-60 min
[7] = four days after ip administration, vs untreated

CC[C@H](C)[C@H](NC(=O)[C@@H](N)CC(N)=O)C(=O)N1CCC[C@H]1C(=O)NCC(=O)N[C@@H](CC(C)C)C(=O)N[C@@H](Cc1ccc(O)cc1)C(=O)N[C@@H](Cc1ccc(O)cc1)C(=O)N[C@@H](Cc1ccccc1)C(=O)N[C@@H](C)C(=O)N[C@@H](Cc1ccc(O)cc1)C(=O)NCCC(N)=O [ADP 25-β-AlaNH2, Asn-Ile-Pro-Gly-Leu-Tyr-Tyr-Phe-Ala-Tyr-β-AlaNH2] (H-NIPGLYYFAY[βAla]-NH2; N-terminus assumed)
biological activity in cancer cell growth inhibition assays ([1]; 50 ng/mL): fully active | Cytostatic Activity of Original Peptide vs. gAd (% Increase) ([1]; MCF-7 cells, 50 ng/mL, relative to 50 ng/mL gAd (baseline)): 11%

CCC[C@H](NC(=O)[C@@H]1CCCN1C(=O)[C@@H](NC(=O)[C@H](N)CC(N)=O)[C@@H](C)CC)C(=O)N[C@@H](CC(C)C)C(=O)N[C@@H](Cc1ccc(O)cc1)C(=O)N[C@H](CO)C(=O)N[C@@H](Cc1ccccc1)C(=O)N[C@@H](C)C(=O)N[C@H](CO)C(N)=O [ADP 355-NH2, D-Asn-Ile-Pro-Nva-Leu-Tyr-D-Ser-Phe-Ala-D-Ser-NH2] (H-[dN]IP[Nva]LY[dS]FA[dS]-NH2)
cytostatic effect at maximal effective doses compared with gAd at 50 ng/mL (LN18 glioblastoma cells; LN18 cells): greater cytostatic effects | effect on normal cell growth (LN18 glioblastoma cells; LN18 cells, 10 pM-100 μM): restricted normal cell growth in a dose-dependent manner | growth inhibition at 10 μM (LN18 glioblastoma cells; [5]): further activity increase | growth inhibition at 100 μM (LN18 glioblastoma cells; [5]): less inhibitory | cytostatic effect at maximal effective doses compared with gAd at 50 ng/mL [2]: greater cytostatic effects | effect on normal cell growth ([2]; 10 pM-100 μM): restricted normal cell growth in a dose-dependent manner | growth inhibition at 10 μM ([2]; compared with 1 μM): further activity increase | growth inhibition at 100 μM ([2]; compared with 1 μM): less inhibitory | AMPK modulation (AMPK; LN18 cells, 10 μM, 0-60 min): did not modulate | phosphorylation of AMPK (AMPK; MCF-7 cells, 100 nM, at 15 and 30 min): increased | AMPK activation (AMPK; [6]): did not affect | ERK1/2 phosphorylation (ERK1/2; MCF-7 cells, 100 nM, at 60 min): decreased | ERK1/2 pathway (ERK1/2; MDA-MB-231 cells, 10 μM, at 30 and 60 min): significantly inhibited | total and phosphorylated levels of Akt (Akt; LN18 cells, 10 μM, at 15-60 min): down-regulated | activation of Akt (Akt; MCF-7 cells, 100 nM, 0-60 min): did not affect | Akt activation (Akt; [6]): did not affect | STAT3 phosphorylation (STAT3; LN18 cells, at 15-60 min): decreased | phosphorylation of STAT3 (STAT3; MCF-7 cells, 100 nM, at 15-60 min): increased | STAT3 phosphorylation (STAT3; MDA-MB-231 cells, at 15 and 30 min): transiently increased | half-life at 150 μg/mL [3]: 1.25 h | stability in whole mouse blood [4]: without noticeable degradation | concentration up to which the growth inhibitory activity was maintained ([1]; MCF-7 cells): up to 10 μM | cytostatic effect at maximal effective doses compared with gAd at 50 ng/mL ([1]; MCF-7 cells): greater cytostatic effects | peptide concentration at which the best growth inhibition was achieved ([1]; MCF-7 cells): 100 nM | effect on normal cell growth ([1]; MCF-7 cells, 10 pM-100 μM): restricted normal cell growth in a dose-dependent manner | growth inhibition at 10 pM-10 nM ([1]; MCF-7 cells, compared with 100 nM): less effective | Kidney weight (female CBA/J mice; 5 mg/kg bolus ip): 0.30 g | Kidney weight relative to total weight (%) (female CBA/J mice; 5 mg/kg bolus ip): 1.6% | Liver weight (female CBA/J mice; 5 mg/kg bolus ip): 1.02 g | Liver weight relative to total weight (%) (female CBA/J mice; 5 mg/kg bolus ip): 5.4% | Spleen weight (female CBA/J mice; 5 mg/kg bolus ip): 0.07 g | Kidney weight (female CBA/J mice; 10 mg/kg bolus ip): 0.29 g | Kidney weight relative to total weight (%) (female CBA/J mice; 10 mg/kg bolus ip): 1.6% | Liver weight (female CBA/J mice; 10 mg/kg bolus ip): 1.09 g | Liver weight relative to total weight (%) (female CBA/J mice; 10 mg/kg bolus ip): 5.9% | Spleen weight (female CBA/J mice; 10 mg/kg bolus ip): 0.06 g | Kidney weight (female CBA/J mice; 25 mg/kg bolus ip): 0.35 g | Kidney weight relative to total weight (%) (female CBA/J mice; 25 mg/kg bolus ip): 1.7% | Liver weight (female CBA/J mice; 25 mg/kg bolus ip): 1.24 g | Liver weight relative to total weight (%) (female CBA/J mice; 25 mg/kg bolus ip): 5.9% | Spleen weight (female CBA/J mice; 25 mg/kg bolus ip): 0.07 g | Kidney weight (female CBA/J mice; 50 mg/kg bolus ip): 0.31 g | Kidney weight relative to total weight (%) (female CBA/J mice; 50 mg/kg bolus ip): 1.7% | Liver weight (female CBA/J mice; 50 mg/kg bolus ip): 1.07 g | Liver weight relative to total weight (%) (female CBA/J mice; 50 mg/kg bolus ip): 6.2% | Spleen weight (female CBA/J mice; 50 mg/kg bolus ip): 0.07 g | spleen size compared with untreated control mice (female CBA/J mice; four days after ip administration): identical in size | increase of kidney size relative to total body weight (female CBA/J mice; [7]): 2% | increase of liver size relative to total body weight (female CBA/J mice; [7]): 8% | signs of systemic toxicity (tremor, head tilt, reduced activity, squinting) (female CBA/J mice; up to 50 mg/kg ip bolus, observed for 4 days): no signs of systemic toxicity
